Experimental data reported in PubChem BioAssay (NCI).
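Abbreviation: GI50, concentration required for 50% inhibition of growth. TGI denotes the concentration required for complete inhibition of growth.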

What was measured:
Experiment in all cases: DTP human tumour cell line panel, 384-well format
HCC-2998 colon = test system: HCC-2998 colon
RPMI-8226 leukemia = test system: RPMI-8226 leukemia
MDA-MB-468 breast = test system: MDA-MB-468 breast
DU-145 prostate = test system: DU-145 prostate
OVCAR-3 ovarian = test system: OVCAR-3 ovarian
NCI-H23 lung = test system: NCI-H23 lung
HOP-62 NSCLC = test system: HOP-62 NSCLC
COLO 205 colon = test system: COLO 205 colon
786-0 renal = test system: 786-0 renal
A498 renal = test system: A498 renal
HL-60(TB) leukemia = test system: HL-60(TB) leukemia
OVCAR-5 ovarian = test system: OVCAR-5 ovarian
M14 melanoma = test system: M14 melanoma

O=c1[nH]nc2c3c(cccc13)NC(CN1Cc3ccccc3C1)=N2
GI50 (HCC-2998 colon): 3.34 µM
TGI (HCC-2998 colon): 17.9 µM
GI50 (RPMI-8226 leukemia): 13.8 µM
TGI (RPMI-8226 leukemia): > 100 µM
GI50 (MDA-MB-468 breast): 2.22 µM
TGI (MDA-MB-468 breast): 9.99 µM
GI50 (DU-145 prostate): 2.96 µM
TGI (DU-145 prostate): 24.1 µM
GI50 (OVCAR-3 ovarian): 3.75 µM
TGI (OVCAR-3 ovarian): > 88.3 µM
GI50 (NCI-H23 lung): 2.27 µM
TGI (NCI-H23 lung): 15.3 µM
GI50 (HOP-62 NSCLC): 4.06 µM
TGI (HOP-62 NSCLC): > 100 µM
GI50 (COLO 205 colon): 5.51 µM
TGI (COLO 205 colon): > 56.2 µM
GI50 (786-0 renal): 5.12 µM
TGI (786-0 renal): > 67.4 µM
GI50 (A498 renal): 3.21 µM
TGI (A498 renal): 12.4 µM
GI50 (HL-60(TB) leukemia): 12.9 µM
TGI (HL-60(TB) leukemia): > 100 µM
GI50 (OVCAR-5 ovarian): 3.89 µM
TGI (OVCAR-5 ovarian): 22.6 µM
GI50 (M14 melanoma): 6.09 µM
TGI (M14 melanoma): > 100 µM
